{"source": "patent US8608967B2", "about": "“Multiple stationary phase matrix and uses thereof” (The Board of Trustees of the University of Arkansas, priority 2011, dated 2013)", "data": [{"experiment": "Dual-phase UHPLC-MS/MS profiling of warfarin and hydroxywarfarins in plasma of patients receiving warfarin", "details": "four plasma samples of patients receiving warfarin", "experimental": "(§1) Human plasma samples were processed as described previously (Wikoff et al., Proc Natl Acad Sci, 2009, 106:3698). […] Following equilibration, ice cold 0.2% formic acid in H2O (190 μL) was added to each sample, followed by ice cold 0.2% formic acid in acetonitrile (1000 μL). Samples were allowed to precipitate at 4° C. for 30 minutes, followed by centrifugation (10 min at 16,000 g) in a microcentrifuge. The supernatant (1000 μL) was then transferred to a new vial and dried down in a speed vacuum concentrator. Plasma extracts were resolubilized (40 μL) in mobile phase (55% methanol, 45% H2O with 0.01% formic acid) maintaining a 1:1 ratio with the original volume of plasma.\n(§2) Standard curves containing all hydroxywarfarins and deuterated internal standards were prepared in potassium phosphate (50 mM, pH 7.4) and analyzed in triplicate with the assay conditions described above. […] The limit of quantification (LOQ) was defined as 5 times the LOD. Metabolite concentrations calculated to be below the limit of quantification were reported as LOQ.\n(§3) All samples were from males and are referred to as M61, […], […], and M80, respectively. Plasma samples were extracted as described above, and analyzed independently on three separate days.", "values": [{"smiles": "CC(=O)C(O)[C@@H](c1ccccc1)c1c(O)c2ccccc2oc1=O", "note": "(stereo partly drawn) [S10a]", "presence of metabolite in human plasma (in words)": "detected but below the limit of quantitation"}, {"smiles": "CC(=O)C[C@@H](c1ccccc1)c1c(O)c2ccc(O)cc2oc1=O", "note": "[S7, S-7-hydroxywarfarin]", "presence of metabolite in human plasma (in words)": "major observed metabolites"}, {"smiles": "CC(=O)C(O)[C@H](c1ccccc1)c1c(O)c2ccccc2oc1=O", "note": "(single isomer, unassigned) [R10a]", "presence of metabolite in human plasma (in words)": "major observed metabolites"}, {"smiles": "CC(=O)C[C@H](c1ccccc1)c1c(O)c2ccc(O)cc2oc1=O", "note": "[R7, R-7-hydroxywarfarin]", "presence of metabolite in human plasma (in words)": "observed in all four plasma samples"}, {"smiles": "CC(=O)CC(c1ccccc1)c1c(O)c2cccc(O)c2oc1=O", "note": "(stereo not drawn) [8-hydroxywarfarin]", "presence of metabolite in human plasma (in words)": "below the limit of detection"}, {"smiles": "CC(=O)CC(c1ccc(O)cc1)c1c(O)c2ccccc2oc1=O", "note": "(stereo not drawn) [4″-hydroxywarfarin]", "presence of metabolite in human plasma (in words)": "observed in some samples, but was below the limit of quantitation"}, {"smiles": "CC(=O)C(O)[C@H](c1ccccc1)c1c(O)c2ccccc2oc1=O", "note": "(single isomer, unassigned) [R10b]", "presence of metabolite in human plasma (in words)": "major observed metabolites"}]}, {"experiment": "Dual-phase UHPLC-MS/MS profiling of warfarin and hydroxywarfarins in plasma of patients receiving warfarin", "details": "patients M61 and M75; 10-hydroxywarfarin derived from both R and S-warfarin", "experimental": "as §1, §2, §3", "values": [{"smiles": "CC(=O)C(O)C(c1ccccc1)c1c(O)c2ccccc2oc1=O", "note": "(stereo not drawn) [10-hydroxywarfarin]", "total plasma concentration compared with S-7-hydroxywarfarin": "higher than S-7-hydroxywarfarin concentrations"}]}, {"experiment": "Dual-phase UHPLC-MS/MS profiling of warfarin and hydroxywarfarins in plasma of patients receiving warfarin", "details": "patients M76 and M80", "experimental": "as §1, §2, §3", "values": [{"smiles": "CC(=O)C[C@@H](c1ccccc1)c1c(O)c2ccc(O)cc2oc1=O", "note": "[S7, S-7-hydroxywarfarin]", "most abundant metabolite in plasma": "the most abundant metabolite"}]}]}
